# Measurements taken from patent US9040532B2, “Alpha adrenergic receptor modulators” (Allergan, Inc., priority 2009, dated 2015).
# What was measured:
# Format in all cases: cell-based
# Alpha 2B = biological target: T1, Alpha 2B (Homo sapiens, UniProt P18089); test: FLIPR assay, intracellular Ca2+ mobilization, alpha 2B; conditions: FLIPR; for EC50: agonist, read-out: Alpha 2B Potency (EC50); for Alpha 2B relative efficacy compared to a standard full agonist: value in parentheses
# T1 sequence (P18089 1-450): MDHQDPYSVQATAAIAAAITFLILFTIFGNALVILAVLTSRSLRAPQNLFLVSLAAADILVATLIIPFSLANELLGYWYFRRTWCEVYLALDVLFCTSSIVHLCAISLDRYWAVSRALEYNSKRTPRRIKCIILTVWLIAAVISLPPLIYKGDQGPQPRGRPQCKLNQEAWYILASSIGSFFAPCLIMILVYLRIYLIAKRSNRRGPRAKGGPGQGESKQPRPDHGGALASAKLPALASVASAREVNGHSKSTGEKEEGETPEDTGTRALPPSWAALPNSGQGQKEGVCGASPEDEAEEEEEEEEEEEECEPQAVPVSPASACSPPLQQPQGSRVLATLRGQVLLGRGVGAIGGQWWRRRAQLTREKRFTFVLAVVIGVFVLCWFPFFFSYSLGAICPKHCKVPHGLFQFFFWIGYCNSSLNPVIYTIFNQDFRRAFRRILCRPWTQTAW
# Method: (§1) Cells are loaded into a plate reader with a Ca^2+ dye indicator and incubated with various compounds. This assay is adequate for monitoring the intracellular Ca^2+ mobilization from fluorescent readings to evaluate receptor agonists.
# Alpha 2C = biological target: T2, Alpha 2C (Homo sapiens, UniProt P18825); test: FLIPR assay, intracellular Ca2+ mobilization, alpha 2C; conditions: for EC50: agonist, read-out: Alpha 2C Potency (EC50); for Alpha 2C relative efficacy compared to a standard full agonist: value in parentheses
# T2 sequence (P18825 1-462): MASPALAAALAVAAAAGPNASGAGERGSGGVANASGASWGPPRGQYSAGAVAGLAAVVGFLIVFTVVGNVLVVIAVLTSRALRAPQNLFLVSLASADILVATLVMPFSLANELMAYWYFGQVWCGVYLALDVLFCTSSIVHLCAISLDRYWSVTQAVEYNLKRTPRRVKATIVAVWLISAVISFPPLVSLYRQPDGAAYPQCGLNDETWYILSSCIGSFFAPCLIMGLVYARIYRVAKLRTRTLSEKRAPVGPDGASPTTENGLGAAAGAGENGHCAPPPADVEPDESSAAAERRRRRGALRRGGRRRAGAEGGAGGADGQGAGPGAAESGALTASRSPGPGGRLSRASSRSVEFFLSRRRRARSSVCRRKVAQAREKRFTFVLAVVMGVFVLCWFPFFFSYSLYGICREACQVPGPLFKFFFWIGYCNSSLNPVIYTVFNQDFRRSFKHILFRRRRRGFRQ
# Method: as §1
# Alpha 2A = biological target: T3, Alpha 2A (Homo sapiens, UniProt P08913); test: FLIPR assay, intracellular Ca2+ mobilization, alpha 2A; conditions: for EC50: agonist, read-out: Alpha 2A Potency (EC50); for Alpha 2A relative efficacy compared to a standard full agonist: value in parentheses
# T3 sequence (P08913 1-465): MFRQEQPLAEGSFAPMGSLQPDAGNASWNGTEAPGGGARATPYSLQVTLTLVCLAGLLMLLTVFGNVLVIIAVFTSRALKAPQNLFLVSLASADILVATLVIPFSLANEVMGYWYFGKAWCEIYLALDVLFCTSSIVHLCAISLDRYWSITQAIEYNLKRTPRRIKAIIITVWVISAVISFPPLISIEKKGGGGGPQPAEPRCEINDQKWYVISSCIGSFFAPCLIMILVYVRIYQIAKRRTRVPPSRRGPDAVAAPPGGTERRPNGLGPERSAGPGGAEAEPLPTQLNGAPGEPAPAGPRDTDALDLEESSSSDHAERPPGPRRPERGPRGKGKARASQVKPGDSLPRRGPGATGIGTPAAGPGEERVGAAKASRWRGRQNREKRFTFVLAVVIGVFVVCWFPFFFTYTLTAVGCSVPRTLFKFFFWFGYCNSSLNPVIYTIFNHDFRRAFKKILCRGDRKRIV
# Method: The compounds described herein were tested for alpha adrenergic activity using a Fluorometric Imaging plate Reader (FLIPR) assay (Princen et al., 2003, Cytometry Part A. 51, pp. 35-45). Cells are loaded into a plate reader with a Ca^2+ dye indicator and incubated with various compounds. This assay is adequate for monitoring the intracellular Ca^2+ mobilization from fluorescent readings to evaluate receptor agonists. […] The compounds described herein activate alpha adrenergic receptors.
SMILES,EC50 (Alpha 2B) [nM],Alpha 2B relative efficacy compared to a standard full agonist (Alpha 2B),EC50 (Alpha 2C) [nM],Alpha 2C relative efficacy compared to a standard full agonist (Alpha 2C),EC50 (Alpha 2A) [nM],Alpha 2A relative efficacy compared to a standard full agonist (Alpha 2A)
"Brc1ccc(NC2=NCCC2)c2ccccc12 [Compound 3, N-(4-Bromo-1-naphthyl)-3,4-dihydro-2H-pyrrol-5-amine]",700,(0.15),833,(0.85),,
"c1nc2c(cc1NC1=NCCC1)CCC2 [Compound 5, N-(3,4-Dihydro-2H-pyrrol-5-yl)-6,7-dihydro-5H-cyclopenta[b]pyridin-3-amine]",,,1280,(0.86),,
"Clc1c(/N=C2\CCCN2)cnc2cccnc12 [Compound 6, 4-Chloro-N-[(2E)-pyrrolidin-2-ylidene]-1,5-naphthyridin-3-amine]",,,2600,(0.59),,
"Clc1ccc(NC2=NCCC2)c2ccccc12 [Compound 7, N-(4-Chloro-1-naphthyl)-3,4-dihydro-2H-pyrrol-5-amine]",1070,(0.33),672,(0.84),,
"Brc1c(NC2=NCCC2)ccc2nccnc12 [Compound 8, 5-Bromo-N-(3,4-dihydro-2H-pyrrol-5-yl)quinoxalin-6-amine]",2200,(0.21),1050,(0.82),1070,(0.81)
"Clc1cc(NC2=NCCC2)cc2nc[nH]c12 [Compound 13, 7-Chloro-N-(3,4-dihydro-2H-pyrrol-5-yl)-1H-benzimidazol-5-amine]",1840,(0.35),435,(0.98),,
"c1cnc2cc(NC3=NCCC3)ccc2n1 [Compound 14, N-(3,4-Dihydro-2H-pyrrol-5-yl)quinoxalin-6-amine]",,,2740,(0.66),,
"c1cc(NC2=NCCC2)c2[nH]ccc2c1 [Compound 22, N-(3,4-Dihydro-2H-pyrrol-5-yl)-1H-indol-7-amine]",,,2160,(0.61),,
"c1cc2cc(NC3=NCCC3)ccc2o1 [Compound 24, N-1-Benzofuran-5-yl-3,4-dihydro-2H-pyrrol-5-amine]",,,630,(0.51),,
"c1cnc2c(NC3=NCCC3)cccc2c1 [Compound 30, N-(3,4-dihydro-2H-pyrrol-5-yl)quinolin-8-amine]",,,2970,(0.71),,
"c1cc(NC2=NCCC2)c2cnccc2c1 [Compound 32, N-(3,4-Dihydro-2H-pyrrol-5-yl)isoquinolin-8-amine]",,,643,(0.95),,
"Fc1cccc2c1C(NC1=NCCC1)CC2 (centres unmarked) [Compound 35, N-(7-Fluoro-2,3-dihydro-1H-inden-1-yl)-3,4-dihydro-2H-pyrrol-5-amine]",618,(0.44),560,(0.87),,

# Compounds with a lower EC50 (Alpha 2C), results first:
EC50 (Alpha 2B) [nM],Alpha 2B relative efficacy compared to a standard full agonist (Alpha 2B),EC50 (Alpha 2C) [nM],Alpha 2C relative efficacy compared to a standard full agonist (Alpha 2C),EC50 (Alpha 2A) [nM],Alpha 2A relative efficacy compared to a standard full agonist (Alpha 2A),SMILES
30,(0.16),5,(0.88),61,(0.81),"c1ccc2c(NC3=NCCC3)cccc2c1 [Compound 1, N-1-Naphthyl-3,4-dihydro-2H-pyrrol-5-amine]"
145,(0.18),368,(0.85),733,(0.61),"Cc1ccc2ccccc2c1NC1=NCCC1 [Compound 2, N-(2-Methyl-1-naphthyl)-3,4-dihydro-2H-pyrrol-5-amine]"
714,(0.19),142,(1.06),,,"c1nc2cc(NC3=NCCC3)ccc2[nH]1 [Compound 4, N-(3,4-Dihydro-2H-pyrrol-5-yl)-1H-benzimidazol-5-amine]"
,,123,(0.85),,,"c1cc2c(c(NC3=NCCC3)c1)CCC2 [Compound 16, N-(2,3-Dihydro-1H-inden-4-yl)-3,4-dihydro-2H-pyrrol-5-amine]"
10,(0.15),9,(0.9),,,"c1cc2cc(NC3=NCCC3)ccc2[nH]1 [Compound 17, N-(3,4-Dihydro-2H-pyrrol-5-yl)-1H-indol-5-amine]"
39,(0.18),69,(0.9),,,"Cc1c(NC2=NCCC2)ccc2[nH]ccc12 [Compound 18, N-(3,4-Dihydro-2H-pyrrol-5-yl)-4-methyl-1H-indol-5-amine]"
142,(0.29),12,(0.85),,,"Cc1cc(NC2=NCCC2)cc2cc[nH]c12 [Compound 19, N-(3,4-Dihydro-2H-pyrrol-5-yl)-7-methyl-1H-indol-5-amine]"
79,(0.61),12,(0.95),,,"Brc1cc(NC2=NCCC2)cc2cc[nH]c12 [Compound 20, 7-Bromo-N-(3,4-dihydro-2H-pyrrol-5-yl)-1H-indol-5-amine]"
,,280,(0.75),,,"c1cc2ccc(NC3=NCCC3)cc2[nH]1 [Compound 21, N-(3,4-Dihydro-2H-pyrrol-5-yl)-1H-indol-6-amine]"
,,89,(0.66),,,"c1cc2cc(NC3=NCCC3)ccc2s1 [Compound 23, N-1-Benzothien-5-yl-3,4-dihydro-2H-pyrrol-5-amine]"
,,104,(0.96),,,"c1cnc2cc(NC3=NCCC3)ccc2c1 [Compound 28, N-(3,4-Dihydro-2H-pyrrol-5-yl)quinolin-7-amine]"
,,281,(0.68),,,"c1ccc2c(c1)CC[C@@H]2NC1=NCCC1 [Compound 33, N-[(1S)-2,3-Dihydro-1H-inden-1-yl]-3,4-dihydro-2H-pyrrol-5-amine]"
163,(0.43),221,(0.8),,,"c1ccc2c(c1)CCC[C@@H]2NC1=NCCC1 [Compound 34, N-[(1S)-1,2,3,4-Tetrahydronaphthalen-1-yl]-3,4-dihydro-2H-pyrrol-5-amine]"
,,22,(0.9),555,(0.79),"Cc1c(/N=C2\CCCN2)cnc2[nH]ccc12 [Compound 38, 4-Methyl-N-[(2E)-pyrrolidin-2-ylidene]-1H-pyrrolo[2,3-b]pyridin-5-amine]"
